Values of other authors as cited in patent US20060078974A1, “Novel purified hydroxymethylglutaryl-CoA reductases and structures thereof” (Affinium Pharmaceuticals, Inc., priority 2004, published 2006).

Target: S. aureus HMGR
Details: inhibition of S. aureus HMGR; reported value

Q: For CC(C)n1c(/C=C/[C@@H](O)C[C@@H](O)CC(=O)O)c(-c2ccc(F)cc2)c2ccccc21 (racemic) [Fluvastatin], which Ki is on record?
A: The Ki was about 320 µM.
